In patent US8901118B2, “Compounds and methods for kinase modulation, and indications therefor” (Plexxikon Inc., priority 2010, dated 2014):

Tests used:
Fms kinase = Fms kinase (Homo sapiens, UniProt P07333); assay: Fms kinase biochemical activity assay (AlphaScreen, biotin-(E4Y)10 phosphorylation); settings: 100 μM ATP; read-out: Biochemical Inhibition IC50 Fms
Experimental: In one assay the biochemical activity IC50 values are determined with respect to inhibition of Fms kinase activity, where inhibition of phosphorylation of a peptide substrate is measured as a function of compound concentration. Compounds to be tested, dissolved in DMSO (1 μL), are added to a white 384-well plate (Costar #3705). Working stocks of Fms kinase (Invitrogen #PV3249), biotin-(E4Y)10 substrate (Upstate Biotech, Cat#12-440), and ATP (Sigma, Cat#A-3377) are prepared in 25 mM Hepes pH 7.5, 0.5 mM MgCl2, 2 mM MnCl2, 2 mM DTT, 0.01% BSA, and 0.01% Tween-20. All components are added to the 384-well plate for a final concentration of 1 ng/well Fms, 30 nM biotin-(E4Y)10 (Upstate Biotechnology) and 100 μM ATP in a volume of 20 μL. Each sample is at 5% DMSO. The plate is then incubated for 20 minutes at 30° C. Just before use, working stocks of donor and acceptor beads from the AlphaScreen PY20 Detection Kit (PerkinElmer, Cat#676601M) are prepared in 25 mM Hepes pH 7.5, pH 7.4, 100 mM EDTA, 0.01% BSA. To stop the reaction, the plate is uncovered in the dark and 5 μL of Donor Beads solution (Streptavidin beads) is added to each well. The plate is incubated at room temperature for 20 minutes. Five microliters of Acceptor Beads solution (PY20 coated beads) are then added to each well. The final concentration of each bead is 10 μg/mL. The plates are incubated at room temperature for 60 minutes. Fluorescence signal is recorded on the Envision reader. Phosphorylated substrate results in binding of the PY20 antibody and association of the donor and acceptor beads such that signal correlates with kinase activity. The signal vs. compound concentration is used to determine the IC50.

[1] = Relative solubility by turbidity in aqueous buffers (pH 1.5, 4.5, 6.8, 7.4); type: physicochemical; settings: for turbidity threshold (L, M, H) 1.4: pH 1.5 (SGF); for turbidity threshold (L, M, H) 4.5: pH 4.5 (SIF); for turbidity threshold (L, M, H) 6.8: pH 6.8 (SIF); for turbidity threshold (L, M, H) 7.4: pH 7.4 (HEPES)
Experimental: As an indication of relative solubility, the turbidity of compounds in aqueous solutions is assessed. To assess possible compound properties in different physiological compartments, such as stomach, intestine, and blood, a series of aqueous buffers with varying pH is used. Thus each compound is diluted into four different physiologically relevant buffers and solution turbidity is measured by spectrophotometry.
Compounds are dissolved at a concentration of 25 mM in dimethyl sulfoxide, then serially diluted 1:1 into a 96 well plate, diluting 10 times in pure dimethyl sulfoxide, with the final well of each row a dimethyl sulfoxide blank. In an assay plate, 99 μL of appropriate buffer is added to each well, and 1 μL of each sample dilution is added to the buffer, achieving a range of final total concentrations in aqueous solutions having different pH. The buffers used are Simulated Gastric Fluid (SGF-pH 1.5) 0.5M NaCl, pH 1.5; Simulated Intestinal fluid (SIF-pH 4.5 and pH 6.8) 0.05M NaH2PO4, pH 4.5 and 6.8; and Hepes Buffer (HEPES-pH 7.4) 10 mM HEPES, 150 mM NaCl, pH 7.4. Control compounds pyrene, estriol and propranolol HCl are also assessed. Plates are spun and then mixed for 1 minute, and the absorbance is read using a Tecan Safire II to read wavelengths in the visible range (490, 535, and 650 nm) at four locations per well, reflecting the degree of turbidity present. The average optical density for each wavelength in each well is graphed vs. compound concentration, and the concentration at which the curve crosses a threshold O.D. of 0.01 for each wavelength is reported as the endpoint turbidity assay result. The average of the three wavelengths is used to compare turbidity of compounds.

CYP1A2 = target: T1, CYP1A2 (Homo sapiens, UniProt P05177); assay: CYP1A2 inhibition (fluorescent substrate CEC); type: in vitro ADME; settings: read-out: Cyp IC50 1A2
T1 sequence (P05177 1-516): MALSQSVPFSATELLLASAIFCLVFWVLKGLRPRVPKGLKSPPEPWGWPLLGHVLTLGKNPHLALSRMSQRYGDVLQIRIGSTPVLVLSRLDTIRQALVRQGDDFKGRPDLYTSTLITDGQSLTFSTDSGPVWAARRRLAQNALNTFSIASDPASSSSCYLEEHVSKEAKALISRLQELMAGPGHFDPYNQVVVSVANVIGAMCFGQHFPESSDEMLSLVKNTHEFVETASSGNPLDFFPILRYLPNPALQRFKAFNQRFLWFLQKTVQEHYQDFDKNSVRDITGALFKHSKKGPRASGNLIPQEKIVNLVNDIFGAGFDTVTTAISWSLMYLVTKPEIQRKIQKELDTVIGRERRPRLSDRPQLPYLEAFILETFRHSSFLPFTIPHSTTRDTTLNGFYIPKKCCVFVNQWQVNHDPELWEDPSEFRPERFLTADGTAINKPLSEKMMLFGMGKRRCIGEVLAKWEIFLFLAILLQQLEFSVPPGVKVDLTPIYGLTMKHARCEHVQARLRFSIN
Experimental: CYP (Cytochrome P450) enzymes are the major drug metabolizing enzymes present in the liver. The inhibition of CYP enzyme activity (IC50) for each of CYP1A2, CYP2C19, CYP2C9, CYP2D6, CYP3A4(BFC) and CYP3A4(BQ) is determined for compounds, where inhibition of metabolism of a known substrate leads to a decrease in the fluorescence of the metabolized product. The fluorescence of the product is monitored as a function of compound concentration. Compounds are dissolved in DMSO to a concentration of 100 mM. These are diluted 1 μL into 82 μL of acetonitrile. An 11 μL aliquot of this solution is then added to 204 μL of cofactor mix (1.3% NADPH Regeneration system Solution A, 1.04% NADPH Regeneration system Solution B from BD Biosciences, 5% acetonitrile and 0.05% DMSO). These are then serially diluted 1:1 (160 μL to 160 μL co-factor mix) for a total of 10 points. A 10 μL aliquot of this final mixture is dispensed into 384 well assay plates and incubated for 10 minutes at 37° C. […] Assay plates are incubated at 37° C. (CYP1A2-15 min; CYP2C9-45 min; CYP2C19, 2D6 and 3A4-30 min) and read in a Tecan Safire 2 plate reader (CYP1A2, 2C19 and 3A4 409 ex/460 em; CYP2C9 and 2D6 409 ex/530 em). The signal versus compound concentration is used to determine the IC50. The enzymes and substrates for this assay are obtained from BD Biosciences.

Sequence of Fms kinase (P07333 20-972): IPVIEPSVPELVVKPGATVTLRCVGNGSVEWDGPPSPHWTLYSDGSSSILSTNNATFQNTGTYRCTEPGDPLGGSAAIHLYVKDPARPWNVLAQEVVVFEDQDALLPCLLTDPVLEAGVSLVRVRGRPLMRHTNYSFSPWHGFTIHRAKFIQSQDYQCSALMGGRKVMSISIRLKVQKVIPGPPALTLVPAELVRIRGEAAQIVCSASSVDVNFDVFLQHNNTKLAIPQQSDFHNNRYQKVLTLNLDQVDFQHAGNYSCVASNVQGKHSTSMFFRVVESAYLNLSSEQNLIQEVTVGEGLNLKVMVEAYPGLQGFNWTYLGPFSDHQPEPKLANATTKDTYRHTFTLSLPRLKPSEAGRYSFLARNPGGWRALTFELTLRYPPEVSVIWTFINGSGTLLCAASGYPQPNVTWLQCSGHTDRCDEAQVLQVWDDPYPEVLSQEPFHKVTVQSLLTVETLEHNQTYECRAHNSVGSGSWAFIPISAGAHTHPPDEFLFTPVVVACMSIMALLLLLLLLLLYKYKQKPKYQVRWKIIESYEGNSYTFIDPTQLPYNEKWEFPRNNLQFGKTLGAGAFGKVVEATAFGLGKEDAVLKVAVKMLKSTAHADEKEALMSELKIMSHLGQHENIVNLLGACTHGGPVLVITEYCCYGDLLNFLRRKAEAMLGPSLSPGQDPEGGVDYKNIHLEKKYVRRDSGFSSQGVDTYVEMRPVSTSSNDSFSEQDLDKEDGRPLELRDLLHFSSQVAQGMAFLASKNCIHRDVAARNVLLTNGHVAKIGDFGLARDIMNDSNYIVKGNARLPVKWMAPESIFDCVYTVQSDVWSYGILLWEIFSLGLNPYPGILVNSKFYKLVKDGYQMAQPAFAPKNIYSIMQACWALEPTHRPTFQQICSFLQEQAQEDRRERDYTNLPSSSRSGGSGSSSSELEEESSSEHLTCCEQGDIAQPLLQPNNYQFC

Row | Compound | IC50 (Fms kinase) [µM] | turbidity threshold (L, M, H) 1.4 [1] | turbidity threshold (L, M, H) 4.5 [1] | turbidity threshold (L, M, H) 6.8 [1] | turbidity threshold (L, M, H) 7.4 [1] | IC50 (CYP1A2) [µM]
1 | COc1ccc(Nc2ccc(C(=O)c3c[nH]c4ncnc(NC(C)(C)C)c34)c(F)n2)cn1 [Compound P-4055, [4-(tert-butylamino)-7H-pyrrolo[2,3-d]pyrimidin-5-yl]-[2-fluoro-6-[(6-methoxy-3-pyridyl)amino]-3-pyridyl]methanone] | < 0.1 | M (moderate solubility if the threshold concentration is 31.3 μM to 250 μM) | M (moderate solubility if the threshold concentration is 31.3 μM to 250 μM) | L (low solubility if the threshold concentration is <31.3 μM) | L (low solubility if the threshold concentration is <31.3 μM) | < 10
2 | COc1ccc(Nc2ccc(C(=O)c3c[nH]c4ncnc(NC5CCC(F)(F)CC5)c34)c(F)n2)cn1 [Compound P-4056, [4-[(4,4-difluorocyclohexyl)amino]-7H-pyrrolo[2,3-d]pyrimidin-5-yl]-[2-fluoro-6-[(6-methoxy-3-pyridyl)amino]-3-pyridyl]methanone] | < 0.1 | M (moderate solubility if the threshold concentration is 31.3 μM to 250 μM) | M (moderate solubility if the threshold concentration is 31.3 μM to 250 μM) | M (moderate solubility if the threshold concentration is 31.3 μM to 250 μM) | L (low solubility if the threshold concentration is <31.3 μM) | > 10
3 | O=C(c1ccc(NC2CCC(F)(F)CC2)nc1Cl)c1c[nH]c2ncnc(NCC(F)(F)F)c12 [Compound P-4057, [2-chloro-6-[(4,4-difluorocyclohexyl)amino]-3-pyridyl]-[4-(2,2,2-trifluoroethylamino)-7H-pyrrolo[2,3-d]pyrimidin-5-yl]methanone] | < 0.1 | L (low solubility if the threshold concentration is <31.3 μM) | L (low solubility if the threshold concentration is <31.3 μM) | L (low solubility if the threshold concentration is <31.3 μM) | M (moderate solubility if the threshold concentration is 31.3 μM to 250 μM) | > 10
4 | CNc1ncnc2[nH]cc(C(=O)c3ccc(NC4CCC(F)(F)CC4)nc3Cl)c12 [Compound P-4058, [2-chloro-6-[(4,4-difluorocyclohexyl)amino]-3-pyridyl]-[4-(methylamino)-7H-pyrrolo[2,3-d]pyrimidin-5-yl]methanone] | < 0.1 | M (moderate solubility if the threshold concentration is 31.3 μM to 250 μM) | L (low solubility if the threshold concentration is <31.3 μM) | L (low solubility if the threshold concentration is <31.3 μM) | L (low solubility if the threshold concentration is <31.3 μM) | > 10
5 | O=C(c1ccc(NC2CCC(F)(F)CC2)nc1Cl)c1c[nH]c2ncnc(NC3CC3)c12 [Compound P-4059, [2-chloro-6-[(4,4-difluorocyclohexyl)amino]-3-pyridyl]-[4-(cyclopropylamino)-7H-pyrrolo[2,3-d]pyrimidin-5-yl]methanone] | < 0.1 | M (moderate solubility if the threshold concentration is 31.3 μM to 250 μM) | L (low solubility if the threshold concentration is <31.3 μM) | L (low solubility if the threshold concentration is <31.3 μM) | L (low solubility if the threshold concentration is <31.3 μM) | > 10
